Consider eight compounds from PubChem BioAssay (NCI).

What all share (experiment): NCI anticancer screen, dose series, 48 h
Assay [1] concerns NCI-H522 lung.
Assay [2] relates to NCI-H23 lung.
Assay [3] relates to SNB-19 CNS.
The subject of assay [4] is CCRF-CEM leukemia.
Assay [5] relates to MDA-N.
Assay [6] relates to SF-295 CNS.
Assay [7] concerns SNB-75 CNS.
The subject of assay [8] is HOP-62 NSCLC.
Assay [9] concerns EKVX NSCLC.
For assay [10], the system named is A549 NSCLC.
Assay [11] relates to SF-268 CNS.
The test system of assay [12] is TK-10 renal.
The test system of assay [13] is DU-145 prostate.
Assay [14] deals with 786-0 renal.
Assay [15] concerns U251 CNS.
In assay [16] the test system is SK-OV-3 ovarian.
Assay [17] concerns RXF 393 renal.
Assay [18] deals with HCC-2998 colon.
Assay [19] concerns SF-539 CNS.
Assay [20] concerns LOX IMVI melanoma.

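How tested: cells in 96-well plates exposed to compound for 48 hours at five concentrations. TGI: concentration producing complete growth inhibition.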

`COCOCC1CCCN1CN1CCC[C@H]1COCOC` (stereo partly specified): the TGI in assay [1], in [2], in assay [3], in assay [4], in assay [5] and in assay [6] was more than 100 µM throughout. In addition, the TGI in assay [7], in assay [8], in assay [9], in assay [10], in [11] and in assay [12] was more than 100 µM in each case. Further, the TGI in assay [13], in [14], in assay [15] and in assay [16] was more than 100 µM in each case.
As for `CC(C)C1SCc2nc3ccccc3n21` (stereo unspecified), the TGI in [1], in assay [2], in assay [3], in assay [4], in [5] and in [6] was more than 100 µM each time. Besides, the TGI in [8], in assay [9], in assay [10], in [11], in [17] and in [12] was more than 100 µM each time. Further, the TGI in assay [18], in [19], in assay [13], in assay [20], in [14] and in assay [15] was more than 100 µM each time. In assay [16], this compound yielded a TGI of more than 100 µM.
Regarding `CC[N+]1(C)CCC(O)(c2ccccc2)C(C(=O)c2ccccc2)C1` (stereo unspecified), the TGI was determined as 3.29 µM in [1]; 40.8 µM in assay [2]; 24.5 µM in assay [3]; 6.89 µM in [4]; 35.9 µM in assay [6]; 24.3 µM in [7]. Moreover, the TGI in assay [8] amounted to 48.2 µM; in assay [9], 43.4 µM; in [10], 27.9 µM; in assay [11], 59.8 µM; in assay [17], 26.6 µM; in assay [12], 31.4 µM. Moreover, the TGI in [18] stood at 49.8 µM; in [19], 31.3 µM; in assay [13], 44.6 µM; in [20] it was 36.8 µM; in assay [14], 18.8 µM; in assay [15], 43.2 µM. This compound also returned a TGI in [16] of 32.1 µM.
As to `COC(=O)n1c(=O)n(-c2ccccc2)c(=O)n1C(=O)Nc1ccccc1`, the TGI in assay [1], in assay [2], in assay [3], in assay [4], in [6] and in assay [7] was more than 100 µM throughout. The TGI in assay [8], in [9], in [10], in [11], in assay [17] and in assay [12] was more than 100 µM throughout. Besides, the TGI in [18], in assay [13], in assay [20], in assay [14], in assay [15] and in [16] was more than 100 µM each time.
For `CN(C)/C=C(\C(=O)c1ccccc1)n1nc(-c2ccccc2)cc1-c1ccccc1`, the TGI in assay [1], in [2], in assay [3], in assay [4], in [5] and in assay [6] was more than 10 µM throughout. Besides, the TGI in assay [8], in assay [9], in [10], in assay [11], in assay [17] and in assay [12] was more than 10 µM each time. The TGI in assay [18], in [19], in assay [13], in assay [20], in [14] and in assay [15] was more than 10 µM throughout. For the same compound, in [16], the TGI was more than 10 µM.
In the case of `NCCCCN(CCCN)Cc1ccccc1`, the TGI in [1], in [2], in assay [3], in assay [4], in assay [6] and in [7] was more than 100 µM in each case. Further, the TGI in assay [8], in assay [9], in [10], in assay [11], in [17] and in assay [12] was more than 100 µM throughout. Further, the TGI in assay [18], in assay [19], in [13], in [14], in assay [15] and in assay [16] was more than 100 µM throughout.
Turning to `O=c1cc(-c2ccccc2)oc2ccc(-c3ccc4oc(-c5ccccc5)cc(=O)c4c3)cc12`, the TGI is 34.5 µM in assay [2]; 50 µM in assay [3]; 43.7 µM in [4]; 29 µM in assay [5]; 43.4 µM in assay [6]; 36.5 µM in assay [8]. Besides, the TGI in assay [9] worked out at 20.1 µM; in assay [10], 50.6 µM; in assay [12], 61.6 µM; in assay [18], 30 µM; in assay [19] it was 30.8 µM; in assay [20], 33.2 µM. For the same compound, the TGI in assay [14] was 72.5 µM; in assay [16] it was more than 100 µM.
As to `CC(=O)c1nc2ccccc2n1CC(=O)c1ccc(Cl)cc1`, the TGI in assay [1] is 23 µM; in assay [2], more than 100 µM; in assay [3] it was more than 100 µM; in assay [4] it was more than 100 µM; in assay [5], more than 100 µM; in assay [6], 43.7 µM. The TGI in assay [8] was 25.2 µM; in assay [9], more than 100 µM; in assay [10], 32.4 µM; in assay [11], more than 100 µM; in [17], 98.5 µM; in assay [12], more than 100 µM. The TGI was more than 100 µM in assay [19]; more than 100 µM in assay [13]; 12.6 µM in assay [20]; 14.1 µM in [14]; more than 100 µM in [15]; more than 100 µM in assay [16].
